From the NIST ThermoML archive (doi:10.1021/je060368x)

Legend:
[1] = excess molar enthalpy (molar enthalpy of mixing); xn = mol fraction of the nth substance listed; conditions: 298.15 K, 101 kPa, Liquid, Flow calorimetry
[2] = xn = mol fraction of the nth substance listed; conditions: 298.15 K, 101 kPa, Liquid
[3] = heat capacity at constant pressure per volume; xn = mol fraction of the nth substance listed; conditions: 298.15 K, 101 kPa, Liquid
[4] = heat capacity at constant pressure per volume; conditions: 298.15 K; 101.33 kPa; Liquid

CCCCCCCO [heptan-1-ol] + C1CCCCC1
[1]
Conditions | excess molar enthalpy [kcal/mol]
x2 = 0.127 | 0.0456
x2 = 0.246 | 0.0867
x2 = 0.359 | 0.119
x2 = 0.466 | 0.142
x2 = 0.567 | 0.154
x2 = 0.662 | 0.155
x2 = 0.753 | 0.145
x2 = 0.839 | 0.126
x2 = 0.922 | 0.0956

C1CCOCC1 [tetrahydropyran] + CCCCCCCCO
[2]
Conditions | mass density [kg/m3]
x1 = 0.0533 | 823.35
x1 = 0.0961 | 824.78
x1 = 0.198 | 828.58
x1 = 0.2967 | 832.64
x1 = 0.4014 | 837.39
x1 = 0.5 | 842.3
x1 = 0.599 | 847.86
x1 = 0.7005 | 854.23
x1 = 0.7999 | 861.27
x1 = 0.8989 | 869.3
x1 = 0.9504 | 873.97

CCCCCCCCCCO [decan-1-ol] + C1CCCCC1
[1]
Conditions | excess molar enthalpy [kcal/mol]
x2 = 0.164 | 0.0694
x2 = 0.306 | 0.118
x2 = 0.431 | 0.148
x2 = 0.541 | 0.163
x2 = 0.638 | 0.166
x2 = 0.726 | 0.159
x2 = 0.805 | 0.144
x2 = 0.876 | 0.122
x2 = 0.941 | 0.0902

CCCCCCCCCO [nonan-1-ol] + C1CCOCC1
Conditions | excess molar enthalpy [kcal/mol] | mass density [kg/m3]
[1], x2 = 0.166 | 0.13 | –
[1], x2 = 0.309 | 0.211 | –
[1], x2 = 0.434 | 0.254 | –
[1], x2 = 0.544 | 0.27 | –
[1], x2 = 0.641 | 0.263 | –
[1], x2 = 0.729 | 0.238 | –
[1], x2 = 0.807 | 0.197 | –
[1], x2 = 0.877 | 0.143 | –
[1], x2 = 0.942 | 0.0767 | –
[2], x2 = 0.0965 | – | 826.81
[2], x2 = 0.1998 | – | 830.22
[2], x2 = 0.2989 | – | 833.75
[2], x2 = 0.3822 | – | 837.11
[2], x2 = 0.497 | – | 842.35
[2], x2 = 0.5969 | – | 847.63
[2], x2 = 0.6983 | – | 853.74
[2], x2 = 0.8 | – | 860.8
[2], x2 = 0.9002 | – | 869.06

CCCCCCCCCCO [decan-1-ol] + C1CCOCC1
Conditions | excess molar enthalpy [kcal/mol] | mass density [kg/m3]
[1], x2 = 0.179 | 0.14 | –
[1], x2 = 0.329 | 0.229 | –
[1], x2 = 0.456 | 0.27 | –
[1], x2 = 0.566 | 0.282 | –
[1], x2 = 0.662 | 0.271 | –
[1], x2 = 0.746 | 0.243 | –
[1], x2 = 0.82 | 0.198 | –
[1], x2 = 0.887 | 0.142 | –
[1], x2 = 0.946 | 0.075 | –
[2], x2 = 0.1017 | – | 828.6
[2], x2 = 0.2006 | – | 831.38
[2], x2 = 0.2971 | – | 834.48
[2], x2 = 0.3995 | – | 838.2
[2], x2 = 0.4943 | – | 842.21
[2], x2 = 0.5984 | – | 847.35
[2], x2 = 0.6979 | – | 853.12
[2], x2 = 0.8001 | – | 860.13
[2], x2 = 0.9009 | – | 868.56

C1CCOCC1 [tetrahydropyran] + CCCCCCO
Conditions | heat capacity, [3] [J/K/m3] | mass density, [2] [kg/m3]
x1 = 0.0523 | 1899000 | 817.49
x1 = 0.1033 | 1883000 | 820.05
x1 = 0.2029 | 1851000 | 825.28
x1 = 0.3021 | 1818000 | 830.74
x1 = 0.4033 | 1782000 | 836.58
x1 = 0.5007 | 1745000 | 842.45
x1 = 0.6013 | 1705000 | 848.93
x1 = 0.7015 | 1662000 | 855.69
x1 = 0.799 | 1616000 | 862.7
x1 = 0.8994 | 1567000 | 870.44
x1 = 0.9482 | 1543000 | 874.45

C1CCOCC1 [tetrahydropyran] + CCCCCCCCCC
[1]
Conditions | excess molar enthalpy [kcal/mol]
x1 = 0.182 | 0.0908
x1 = 0.333 | 0.143
x1 = 0.461 | 0.165
x1 = 0.571 | 0.17
x1 = 0.666 | 0.16
x1 = 0.75 | 0.141
x1 = 0.823 | 0.115
x1 = 0.889 | 0.0821
x1 = 0.947 | 0.0428

C1CCOCC1 [tetrahydropyran] + CCCCCO
Conditions | excess molar enthalpy, [1] [kcal/mol] | heat capacity, [3] [J/K/m3] | mass density, [2] [kg/m3]
x1 = 0.0486 | – | 1898000 | 813.55
x1 = 0.0968 | – | 1881000 | 816.55
x1 = 0.11 | 0.0784 | – | –
x1 = 0.2002 | – | 1846000 | 823.07
x1 = 0.217 | 0.144 | – | –
x1 = 0.2987 | – | 1811000 | 829.33
x1 = 0.323 | 0.19 | – | –
x1 = 0.3966 | – | 1776000 | 835.71
x1 = 0.426 | 0.219 | – | –
x1 = 0.4994 | – | 1738000 | 842.54
x1 = 0.526 | 0.232 | – | –
x1 = 0.5993 | – | 1698000 | 849.33
x1 = 0.625 | 0.228 | – | –
x1 = 0.6972 | – | 1657000 | 856.2
x1 = 0.722 | 0.206 | – | –
x1 = 0.8 | – | 1610000 | 863.59
x1 = 0.816 | 0.165 | – | –
x1 = 0.8983 | – | 1564000 | 870.89
x1 = 0.909 | 0.0978 | – | –
x1 = 0.9495 | – | 1540000 | 874.85

C1CCOCC1 [tetrahydropyran] + CCCCO
Conditions | heat capacity, [3] [J/K/m3] | mass density, [2] [kg/m3]
x1 = 0.0511 | 1899000 | 809.59
x1 = 0.0976 | 1882000 | 813.23
x1 = 0.1996 | 1847000 | 821.04
x1 = 0.301 | 1811000 | 828.64
x1 = 0.3987 | 1778000 | 835.87
x1 = 0.499 | 1739000 | 843.12
x1 = 0.598 | 1699000 | 850.26
x1 = 0.6994 | 1655000 | 857.46
x1 = 0.7998 | 1610000 | 864.53
x1 = 0.8998 | 1563000 | 871.67
x1 = 0.9501 | 1541000 | 875.22

C1CCOCC1 [tetrahydropyran]
Conditions | heat capacity [J/K/m3]
[4] | 1519000

CCCCCO [pentan-1-ol] + C1CCCCC1
[1]
Conditions | excess molar enthalpy [kcal/mol]
x2 = 0.1 | 0.0357
x2 = 0.2 | 0.0692
x2 = 0.3 | 0.0977
x2 = 0.4 | 0.125
x2 = 0.5 | 0.143
x2 = 0.6 | 0.152
x2 = 0.7 | 0.149
x2 = 0.8 | 0.133
x2 = 0.9 | 0.102

CCCCCCCO [heptan-1-ol] + C1CCOCC1
[2]
Conditions | mass density [kg/m3]
x2 = 0.0514 | 820.57
x2 = 0.1047 | 822.8
x2 = 0.1988 | 826.97
x2 = 0.2987 | 831.67
x2 = 0.4018 | 836.94
x2 = 0.4976 | 842.18
x2 = 0.6005 | 848.37
x2 = 0.6985 | 854.74
x2 = 0.8002 | 861.99
x2 = 0.8989 | 869.83
x2 = 0.9487 | 874.13

C1CCOCC1 [tetrahydropyran] + CCCO
Conditions | heat capacity, [3] [J/K/m3] | mass density, [2] [kg/m3]
x1 = 0.0996 | 1875000 | 809.78
x1 = 0.1994 | 1838000 | 819.29
x1 = 0.2873 | 1807000 | 827.18
x1 = 0.3993 | 1766000 | 836.57
x1 = 0.4981 | 1728000 | 844.4
x1 = 0.6011 | 1687000 | 852.07
x1 = 0.7007 | 1646000 | 859.15
x1 = 0.7981 | 1604000 | 865.77
x1 = 0.9007 | 1560000 | 872.46

CCCCCCCCCO [nonan-1-ol] + C1CCCCC1
[1]
Conditions | excess molar enthalpy [kcal/mol]
x2 = 0.152 | 0.0608
x2 = 0.287 | 0.107
x2 = 0.409 | 0.138
x2 = 0.518 | 0.156
x2 = 0.617 | 0.161
x2 = 0.707 | 0.157
x2 = 0.79 | 0.143
x2 = 0.866 | 0.12
x2 = 0.936 | 0.089
